# Read-outs that look alike come from different tables or passages of the source.
# Molecular target: recombinant human CYP17 enzyme (Homo sapiens (Human), UniProt P05093)
# Experiment: Cytochrome P450, 17-20 lyase (CYP17-lyase) assay, tritiated acetic acid release from 17-α-hydroxy pregnenolone [21-3H]
# Type: biochemical
# Conditions: for IC50: human CYP17, substrate 0.25 μM
# From the text: Assay method was adopted from a published protocol with some modifications to suit our requirements (Dmitry N Grigoryev et al, Analytical Biochemistry, (1999) 267, 319-330). […] Chloroform extraction removes the radioactive steroids and acetic acid is taken into aqueous layer. The tritiated acetic acid released in the assay thus extracted is quantified to determine the enzyme activity. […] The purified cell membrane preparations were used as the source for Human CYP17 enzyme. […] O, Nijar, et al., J Med Chem, (1998) 41, 902-912). […] Km for this substrate was determined by monitoring the tritiated acetic acid release as a function of substrate concentration. […] For the Km determination, the data was fit to a hyperbolic equation (Graphpad Prism® software IV). […] (Dmitry N. Grigoryev et al, Analytical Biochemistry (1999) 267, 319-330) […] NADPH is used at a final concentration of 4.2 mM. Total reaction volume was made up to 50 μL with 50 mM Phosphate buffer pH 7.5. The reaction mixture was incubated at room temperature for 90 minutes with gentle shaking. The reaction was stopped by the addition of 100 μL of buffer. 500 μL of 5% freshly prepared activated charcoal was added to the solution and mixed well by vortexing. The samples were centrifuged at 17568×g for 5 minutes. (14000 rpm). The supernatant was carefully transferred to fresh tube and 1.3 mL of scintillation fluid was added, mixed by vortexing. The radioactivity was measured in a 1450 MicroBeta TriLux™ scintillation counter from Wallac-Perkin Elmer®, USA. The measurements were carried out in 2.0 mL Eppendorforf™ tubes. […] The amount of tritiated acetic acid released is proportional to the lyase activity. Percent lyase activity in presence of inhibitor was calculated using the formula given below. […] Enzyme reaction in presence of inhibitor. • Positive control: […] For IC50 determination, the % inhibition was plotted as a function of inhibitor concentration. The data was fitted to sigmoidal equation using Graphpad Prism® software IV to generate IC50 values.
# [1] = read-out: Lyase IC 50 nM Human/Rat (Human)
# [2] = read-out: Lyase IC 50 Human/Rat (Human)
# recombinant human CYP17 enzyme, sequence (P05093 whole entry): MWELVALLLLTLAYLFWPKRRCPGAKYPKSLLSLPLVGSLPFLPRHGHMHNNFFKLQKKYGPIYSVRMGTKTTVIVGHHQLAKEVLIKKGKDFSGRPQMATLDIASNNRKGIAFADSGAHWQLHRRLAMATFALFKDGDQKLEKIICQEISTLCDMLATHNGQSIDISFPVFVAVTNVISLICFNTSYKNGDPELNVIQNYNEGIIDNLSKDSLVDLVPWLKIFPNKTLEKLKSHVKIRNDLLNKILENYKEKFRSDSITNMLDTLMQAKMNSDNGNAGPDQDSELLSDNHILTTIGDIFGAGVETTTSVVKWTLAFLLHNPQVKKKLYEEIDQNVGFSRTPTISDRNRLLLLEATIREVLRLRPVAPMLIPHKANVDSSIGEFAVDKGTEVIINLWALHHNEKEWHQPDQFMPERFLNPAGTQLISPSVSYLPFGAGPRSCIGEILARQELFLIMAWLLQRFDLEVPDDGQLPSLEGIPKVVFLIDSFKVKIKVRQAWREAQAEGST
IC50 [1],Structure (SMILES),also measured
70 nM,"Cc1ccncc1N1CCN(c2ccc(Cl)cc2)C1=O [Example 38A, 1-(4-Chloro-phenyl)-3-(4-methyl-pyridin-3-yl)-imidazolidin-2-one]",–
27 nM,"Cc1ccncc1N1CCN(c2ccc(F)c(F)c2)C1=O [Example 45A, 1-(3,4-Difluoro-phenyl)-3-(4-methyl-pyridin-3-yl)-imidazolidin-2-one]",–
10 nM,"Cc1ccncc1N1CCN(c2ccc(F)c(Cl)c2)C1=O [Example 46A, 1-(3-Chloro-4-fluoro-phenyl)-3-(4-methyl-pyridin-3-yl)-imidazolidin-2-one]",–
30 nM,"Cc1ccncc1N1CCN(c2ccc3c(c2)OCCO3)C1=O [Example 49A, 1-(2,3-Dihydro-benzo[1,4]dioxin-6-yl)-3-(4-methyl-pyridin-3-yl)-imidazolidin-2-one]",–
51 nM,Cc1ccncc1N1CCN(c2ccc(C(F)(F)F)cc2)C1=O [Example 50A],–
14 nM,"Cc1ccncc1N1CCN(c2ccc3c(c2)CCO3)C1=O [Example 51A, 1-(2,3-Dihydro-benzofuran-5-yl)-3-(4-methyl-pyridin-3-yl)-imidazolidin-2-one]",–
136 nM,"COc1ccc(N2CCN(c3cnccc3C)C2=O)cc1F [Example 53A, 1-(3-Fluoro-4-methoxy-phenyl)-3-(4-methyl-pyridin-3-yl)-imidazolidin-2-one]",–
15 nM,"Cc1ccncc1N1CCN(c2ccc(Cl)c(F)c2)C1=O [Example 54A, 1-(4-Chloro-3-fluoro-phenyl)-3-(4-methyl-pyridin-3-yl)-imidazolidin-2-one]",–
25 nM,"COc1cccc(N2CCN(c3cnccc3C)C2=O)c1 [Example 56A, 1-(3-Methoxy-phenyl)-3-(4-methyl-pyridin-3-yl)-imidazolidin-2-one]",–
27 nM,"Cc1ccncc1N1CCN(c2ccnc(Cl)c2)C1=O [Example 58A, 1-(2-Chloro-pyridin-4-yl)-3-(4-methyl-pyridin-3-yl)-imidazolidin-2-one]",–
17 nM,"Cc1cc(N2CCN(c3cnccc3C)C2=O)ccc1F [Example 59A, 1-(4-Fluoro-3-methyl-phenyl)-3-(4-methyl-pyridin-3-yl)-imidazolidin-2-one]",–
426 nM,"Cc1ccncc1N1CCN(c2ccc3scnc3c2)C1=O [Example 62A, 1-Benzothiazol-5-yl-3-(4-methyl-pyridin-3-yl)-imidazolidin-2-one]",–
35 nM,"Cc1ccncc1N1CCN(c2ccc3c(c2)OC(F)(F)O3)C1=O [Example 64A, 1-(2,2-Difluoro-benzo[1,3]dioxol-5-yl)-3-(4-methyl-pyridin-3-yl)-imidazolidin-2-one]",–
76 nM,"COc1cc(N2CCN(c3cnccc3C)C2=O)ccc1F [Example 74A, 1-(4-Fluoro-3-methoxy-phenyl)-3-(4-methyl-pyridin-3-yl)-imidazolidin-2-one]",–
192 nM,Cc1ccncc1N1CCN(c2ccnc(N)c2)C1=O [Example 76A],–
195 nM,"Cc1ccncc1N1CCN(c2ccc3nccnc3c2)C1=O [Example 77A, 1-(4-Methyl-pyridin-3-yl)-3-quinoxalin-6-yl-imidazolidin-2-one]",–
9.3 nM,"Cc1ccncc1N1CCN(c2csc(C(F)F)c2)C1=O [Example 78A, 1-(5-Difluoromethyl-thiophen-3-yl)-3-(4-methyl-pyridin-3-yl)-imidazolidin-2-one]",–
12 nM,"Cc1ccncc1N1CCN(c2cccc(Cl)c2)C1=O [Example 88A, 1-(3-Chloro-phenyl)-3-(4-methyl-pyridin-3-yl)-imidazolidin-2-one]",–
5 nM,"Cc1ccncc1N1CCN(c2ccc(F)c(C(F)(F)F)c2)C1=O [Example 90A, 1-(4-Fluoro-3-trifluoromethyl-phenyl)-3-(4-methyl-pyridin-3-yl)-imidazolidin-2-one]",–
4.3 nM,"Cc1ccncc1N1CCN(c2ccc(F)c(C(F)F)c2)C1=O [Example 91A, 1-(3-Difluoromethyl-4-fluoro-phenyl)-3-(4-methyl-pyridin-3-yl)-imidazolidin-2-one]",–

# The next lines start with the compound.
Structure (SMILES),IC50 [1],also measured
"CN1CCC[C@H]1COc1ccncc1N1CCN(c2ccc3ncsc3c2)C1=O (stereo in doubt) [Example 181A, 1-Benzothiazol-6-yl-3-[4-(1-methyl-pyrrolidin-2-ylmethoxy)-pyridin-3-yf]-imidazolidin-2-one]",3060 nM,–
"CC(=O)C1(O)CCC2C3CC=C4CC(O)CCC4(C)C3CCC21C (stereo not drawn) [17-α-hydroxy pregnenolone [21-3H], reference compound]",–,"Km (substrate varied from 0.03125 μM to 1 μM, hyperbolic fit, read-out: Km (Michaelis Menton constant) of the substrate): 0.25 µM"
"Cc1ccc(N2CCN(c3cnccc3C)C2=O)s1 [Example 15A, 1-(4-Methyl-pyridin-3-yl)-3-(5-methyl-thiophen-2-yl)-imidazolidin-2-one]",10 nM,–
"Cc1ccncc1N1CCN(c2ccccc2)C1=O [Example 69A, 1-(4-Methyl-pyridin-3-yl)-3-phenyl-imidazolidin-2-one]",34 nM,–
"Cc1ccncc1N1CCN(c2ccn3ccnc3c2)C1=O [Example 73A, 1-imidazolidin-2-one]",109 nM,–
"CC(=O)Nc1ccc(N2CCN(c3cnccc3C)C2=O)cn1 [Example 75A, N-{5-[3-(4-Methyl-pyridin-3-yl)-2-oxo-imidazolidin-1-yl]-pyridin-2-yl}-acetamide]",–,IC50 [2]: > 10000 nM
"O=C1N(c2ccc3ncsc3c2)CCN1c1cnccc1Cl [Example 84A, 1-Benzothiazol-6-yl-3-(4-chloro-pyridin-3-yl)-imidazolidin-2-one]",85 nM,–
"Cc1ccncc1N1CCN(c2ccnc(N3CCCC3)c2)C1=O [Example 85A, 1-(4-Methyl-pyridin-3-yl)-3-(2-pyrrolidin-1-yl-pyridin-4-yl)-imidazolidin-2-one]",1260 nM,–
"Cc1ccncc1N1CCN(c2cccc(Cl)c2F)C1=O [Example 86A, 1-(3-Chloro-2-fluoro-phenyl)-3-(4-methyl-pyridin-3-yl)-imidazolidin-2-one]",1200 nM,–
"Cc1ccncc1N1CCN(c2ccc(-c3ccc(F)cc3)cc2)C1=O [Example 87A, 1-(4′-Fluoro-biphenyl-4-yl)-3-(4-methyl-pyridin-3-yl)-imidazolidin-2-one]",255 nM,–
"Cc1cc(Cl)ccc1N1CCN(c2cnccc2C)C1=O [Example 89A, 1-(4-Chloro-2-methyl-phenyl)-3-(4-methyl-pyridin-3-yl)-imidazolidin-2-one]",326 nM,–
"Cc1ccncc1-n1ccn(-c2ccc(F)c(C(F)F)c2)c1=O [Example 91B, 1-(3-Difluoromethyl-4-fluoro-phenyl)-3-(4-methyl-pyridin-3-yl)-1,3-dihydro-imidazol-2-one]",22 nM,–
"Cc1cc(-n2ccn(-c3cnccc3C)c2=O)cs1 [Example 92A, 1-(4-Methylpyridin-3-yl)-3-(5-methylthiophen-3-yl)-1H-imidazol-2(3H)-one]",21 nM,–
"Cc1cc(N2CCN(c3cnccc3C)C2=O)cs1 [Example 92B, 1-(4-Methyl-pyridin-3-yl)-3-(5-methyl-thiophen-3-yl)-imidazolidin-2-one]",12 nM,–
"Cc1nc2cc(N3CCN(c4cnccc4C)C3=O)ccc2o1 [Example 93A, 1-(2-Methyl-benzooxazol-5-yl)-3-(4-methyl-pyridin-3-yl)-imidazolidin-2-one]",–,IC50 [2]: > 10000 nM
"Cc1ccncc1N1CCN(c2ccc3nccn3c2)C1=O [Example 94A, 1-Imidazo[1,2-a]pyridin-6-yl-3-(4-methyl-pyridin-3-yl)-imidazolidin-2-one]",110 nM,–

# From patent publication USRE45173E1, “Inhibitors of CYP 17” (Novartis AG, priority 2009, dated 2014)
